# Test results published in publication PMC7311426, “An amphipathic peptide with antibiotic activity against multidrug-resistant Gram-negative bacteria” (Nature Communications, 2020).
# Where two headings read alike, the source gives them in different places. Residues, ends and D or L forms follow the SMILES beside them.
# Experiments:
# A. baumannii = test: microbe, parasite or virus in culture; conditions: for MIC: Acinetobacter baumannii, mode of 6 replicates
# In short: (§1)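 Broth microdilution in MHB, 2-fold 12-point series from 128 or 64 down to 0.06 or 0.03 μg mL^−1, 5 × 10^5 CFU mL^−1. Extra runs in CAMHB per CLSI and in MHB with 1% agarose; n ≥ 6.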
# C. albicans = test: microbe, parasite or virus in culture
# C. neoformans = test: microbe, parasite or virus in culture
# E. coli [1] = test: microbe, parasite or virus in culture; conditions: for MIC: Escherichia coli
# In short: as §1
# K. pneumoniae = test: microbe, parasite or virus in culture; conditions: for MIC: Klebsiella pneumoniae, mode of 6 replicates
# In short: as §1
# L. monocytogenes = test: microbe, parasite or virus in culture
# In short: as §1
# P. aeruginosa = test: microbe, parasite or virus in culture; conditions: for MIC: Pseudomonas aeruginosa, mode of 6 replicates
# In short: as §1
# S. enterica Typhi = test: microbe, parasite or virus in culture; conditions: for BMD MIC: Typhi
# In short: as §1
# E. coli ATCC 25922 = test: microbe, parasite or virus in culture; type: cell-based, Escherichia coli; conditions: ATCC 25922
# Experimental: Assays were performed in Mueller Hinton broth (MHB; BD, Cat. No. 211443) for bacteria, and yeast extract-peptone dextrose (YPD; Sigma-Aldrich, Y1500) for yeast. The concentrations of the peptides and comparator antibiotics/antifungals in the assay wells ranged from either 128 or 64 μg mL^−1, to 0.06 or 0.03 μg mL^−1 as a 12-point dose response plated as a 2-fold dilution series across the wells of the plate in duplicate for each independent biological replicate, using a final cell density of 5 × 10^5 CFU mL^−1 and 2.5 × 10^3 CFU mL^−1 for bacteria and yeast respectively. Final assay volumes were 100 μL per well with MICs determined visually following 18-20 h incubation at 37 °C for bacteria, 24 h incubation at 35 °C for Candida albicans, and 24 h incubation at 35 °C with resazurin addition (0.006%; Sigma-Aldrich, Cat # R7017) for a further 3 h for Cryptococcus neoformans, without shaking. Additional bacterial and yeast susceptibility assays were performed in Cation-Adjusted Mueller Hinton Broth (CAMHB; BD, Cat No. 212322) and Roswell Park Memorial Institute (RPMI) 1640 culture medium (Life Technologies Australia, Cat No. 21870092), respectively, as recommended by CLSI guidelines (M07 11th ed[36] and M27 4th ed[37]). […] However, for yeast it was determined that the YPD media was more reliable and robust between repeats and therefore MICs in this media are reported. […] Agarose MICs were determined in MHB with 1% agarose (Bioline molecular grade; Cat no: BIO-41025; high purity, high gel strength). All experiments were performed a minimum of six replicates (n ≥ 6).
# in vitro = conditions: human
# Experimental: (§2) HEK-293 human embryonic kidney cells (ATCC CRL-1573), HepG2 liver hepatocellular carcinoma cells (ATCC HB-8065), and HK-2 human kidney proximal tubule cells (ATCC CRL-2190) cell lines were purchased from ATCC. Cytotoxicity of arenicin-3 variants was determined using the Alamar Blue (resazurin; Sigma-Aldrich, Cat # R7017), with 1% FBS for HK-2 and 10% FBS for HEK-293, and HepG2[40]. Cells were seeded as 2000 cells per well in black wall clear bottom 384-well plates (Corning®, Costar®, Cat # 3712). The cells were incubated for 24 h at 37 °C, 5% CO2. Then peptides were added into each cell containing well. After 24 h incubation, 5 μM resazurin were added per well and incubated at 37 °C for 2 h. Then the fluorescence intensity (FI) was read using a Polarstar® Omega plate reader with excitation/emission 560/590 and CC50 values were determined using Prism 8 following curve fitting and applying the following equation: Percentageviability = (FITEST-FINegative/FIUNTREATED-FINegative)×100.
# (§3) Hemolytic activity was measured against isolated human erythrocytes from anonymously donated fresh human blood. Isolated erythrocytes were adjusted to 1 × 10^9 blood cells mL^−1 in phosphate-buffered saline (PBS, pH 7.4), added to the wells of NUNC polypropylene round-bottom 96-well plates (Sigma-Aldrich, Cat # P6866) then up to 300 μg mL^−1 of compound was added per well and incubated for 3 h at 37 °C. Following incubation, samples were centrifuged at 3000 rpm for 20 min, and the supernatants, 100 μL, were carefully collected for measurement. The degree of hemolysis in the samples was determined by measurement of the absorption of the supernatants at 540 nm using the Polarstar-Omega plate reader. 1% Triton-X100 was used as positive control for inducing 100% hemolysis. HC10 and HC50 values were determined using Prism 8 following curve fitting. The use of human blood (sourced from the Australian Red Cross Blood Service) for hemolysis assays was approved by the University of Queensland Institutional Human Research Ethics Committee, Approval Number 2014000031. All in vitro toxicity assays were performed for two independent biological replicates as an 8-point dose response of 3-fold dilution series in triplicate with the highest test concentration of 300 μg mL^−1.
# [2] = tested on: HEK-293 human embryonic kidney cells; test: in vitro
# Experimental: as §2, §3
# [3] = tested on: HK-2 human kidney proximal tubule cells; test: in vitro
# Experimental: as §2, §3
# [4] = tested on: HepG2 liver hepatocellular carcinoma cells; test: in vitro
# Experimental: as §2, §3
# [5] = tested on: human erythrocytes (HRBC); type: cell-based; conditions: for Heamolysis HC10: red cells of human, 3 h
# E. coli [6] = tested on: E. coli; design: method as in Hasman H, et al. Euro. Surveill. (2015) 20:49; conditions: E. coli ESBL20150072, mcr-1 pos; ESBL; CAMHB; comparator antibiotics; ref Hasman H, et al. Euro. Surveill. (2015) 20:49; cited from earlier work
Structure (SMILES),BMD MIC (A. baumannii) [µg/mL],BMD MIC (C. albicans) [µg/mL],BMD MIC (C. albicans; 24 h) [µg/mL],BMD MIC (C. neoformans) [µg/mL],MIC against ESBL producing E. coli DSA 443 (E. coli [1]) [µg/mL],BMD MIC (K. pneumoniae) [µg/mL],BMD MIC (L. monocytogenes) [µg/mL],BMD MIC (P. aeruginosa) [µg/mL],BMD MIC (S. enterica Typhi) [µg/mL],"MIC, MHB (E. coli ATCC 25922) [µg/mL]",CC50 at 24 h (in vitro; HEK-293 cells) [µg/mL],CC50 at 24 h (in vitro; HK-2 cells) [µg/mL],CC50 at 24 h (in vitro; HepG2 cells) [µg/mL],CC50 HEK293 [2] [µg/mL],"CC50 HEK293, Mean [2] [µg/mL]",CC50 HK2 [3] [µg/mL],"CC50 HK2, Mean [3] [µg/mL]",CC50 HepG2 [4] [µg/mL],"CC50 HepG2, Mean [4] [µg/mL]","Heamolysis HC10, Mean [5] [µg/mL]",other results
"CC(C)[C@@H]1NC(=O)CNC(=O)[C@H](CC(N)=O)NC(=O)[C@H](CCCNC(=N)N)NC(=O)[C@H](CCCNC(=N)N)NC(=O)[C@H](C(C)C)NC(=O)[C@@H]2CSSC[C@H](NC(=O)[C@H](C(C)C)NC(=O)[C@H](CCCNC(=N)N)NC1=O)C(=O)N[C@@H](Cc1c[nH]cn1)C(=O)N[C@@H](CCCNC(=N)N)C(=O)N[C@@H](CCCNC(=N)N)C(=O)N[C@H](C(=O)N[C@@H](CC(N)=O)C(=O)O)CSSC[C@H](NC(=O)[C@H](Cc1ccccc1)NC(=O)CN)C(=O)N[C@@H](Cc1c[nH]c3ccccc13)C(=O)N[C@@H](CC(N)=O)C(=O)N[C@@H](C(C)C)C(=O)N2 [NZ17143] (HELM PEPTIDE1{G.F.C.W.N.V.C.V.R.R.N.G.V.R.V.C.H.R.R.C.N}$PEPTIDE1,PEPTIDE1,3:R3-20:R3|PEPTIDE1,PEPTIDE1,7:R3-16:R3$$$V2.0)",2,>32,32,4,0.5,1,8,1,0.5,0.25,> 300,> 250,> 300,>300,>300,>253,>250,>300,>300,>300,Heamolysis HC10 [5]: >300 µg/mL
"CO/N=C(\C(=O)N[C@@H]1C(=O)N2C(C(=O)[O-])=C(C[N+]3(C)CCCC3)CS[C@H]12)c1csc(N)n1 [Cefepime, reference compound]",–,–,–,–,–,–,–,–,–,–,–,–,–,–,–,–,–,–,–,–,"MIC (A. baumannii; ATCC19636, read-out: BMD MIC, A. baumannii ATCC 19636 type strain, CAMHB): 8 µg/mL; MIC (A. baumannii; read-out: BMD MIC, A. baumannii Greece CI, XDR, PmxR, MHB): > 64 µg/mL; MIC (E. coli [1]; ATCC25922, read-out: BMD MIC, E. coli ATCC 25922 FDA control strain, CAMHB, mode of 6 replicates): ≤ 0.5 µg/mL; MIC (E. coli [1]; ATCC700926 / MG1655, read-out: BMD MIC): ≤ 0.5 µg/mL; MIC (E. coli [1]; ATCC700928, read-out: BMD MIC, E. coli ATCC 700928 CFT073 UPEC, CAMHB, mode of 6 replicates): ≤ 0.5 µg/mL; MIC (E. coli [1]; read-out: BMD MIC): 8 µg/mL; MIC (K. pneumoniae; ATCC13883, read-out: BMD MIC, K. pneumoniae ATCC 13883 type strain (polymyxin/colistin heteroresistant), MHB): 1 µg/mL; MIC (K. pneumoniae; ATCC700603, read-out: BMD MIC, K. pneumoniae ATCC 700603 (K6), MDR, OXA-2/SHV-18, CAMHB): 0.5 µg/mL; MIC (K. pneumoniae; BAA2146, read-out: BMD MIC, K. pneumoniae BAA-2146, MDR, ESBL, NDM-1 pos, MHB): > 64 µg/mL; MIC (K. pneumoniae; read-out: BMD MIC, K. pneumoniae Greece CI 8_GR_13, XDR, KPC-2, PmxR, MHB): > 64 µg/mL; MIC (P. aeruginosa; ATCC27853, read-out: BMD MIC, P. aeruginosa ATCC 27853 control strain, CAMHB): ≤ 0.5 µg/mL; MIC (P. aeruginosa; read-out: BMD MIC, P. aeruginosa FADDI-070, MDR, PmxR, MHB/CAMHB): > 64 µg/mL; MIC (S. enterica Typhi; Salmonella enterica, ATCC14028 / TYPHI, read-out: BMD MIC): ≤ 0.5 µg/mL; BMD MIC (E. coli [6]): >2 µg/mL"
"CC[C@H](C)[C@@H]1NC(=O)[C@H](CCCNC(=N)N)NC(=O)[C@H](C(C)C)NC(=O)CNC(=O)[C@H](CC(N)=O)NC(=O)[C@H](CCCNC(=N)N)NC(=O)[C@H](Cc2ccc(O)cc2)NC(=O)[C@H](C(C)C)NC(=O)[C@@H]2CSSC[C@H](NC1=O)C(=O)N[C@@H](Cc1c[nH]cn1)C(=O)N[C@@H](CCCNC(=N)N)C(=O)N[C@@H](CCCNC(=N)N)C(=O)N[C@H](C(=O)N[C@@H](CC(N)=O)C(=O)O)CSSC[C@H](NC(=O)[C@H](Cc1ccccc1)NC(=O)CN)C(=O)N[C@@H](Cc1c[nH]c3ccccc13)C(=O)N[C@@H](CC(N)=O)C(=O)N[C@@H](C(C)C)C(=O)N2 [NZ17211] (HELM PEPTIDE1{G.F.C.W.N.V.C.V.Y.R.N.G.V.R.I.C.H.R.R.C.N}$PEPTIDE1,PEPTIDE1,3:R3-20:R3|PEPTIDE1,PEPTIDE1,7:R3-16:R3$$$V2.0)",4,>32,64,4,2.0,2,16,2,1,0.5,> 300,> 250,> 300,>300,>300,>255,>250,>300,>300,>300,Heamolysis HC10 [5]: >300 µg/mL
